Assay results as given in US11976064B2, “Toll-like receptor agonists” (Pfizer Inc., priority 2019, dated 2024).

Experiments:
[1] = target: T1, human toll like receptor 7 (hTLR7) (Homo sapiens, UniProt Q9NYK1); experiment: hTLR7 cell functional assay (HEK-Blue hTLR7 SEAP reporter); type: cell-based; settings: HEK293 cells stably overexpressing hTLR7, SEAP reporter; geometric mean when tested more than once
T1 construct: host or cells: HEK293 (HEK-Blue hTLR7)
T1 sequence (Q9NYK1 27-1049): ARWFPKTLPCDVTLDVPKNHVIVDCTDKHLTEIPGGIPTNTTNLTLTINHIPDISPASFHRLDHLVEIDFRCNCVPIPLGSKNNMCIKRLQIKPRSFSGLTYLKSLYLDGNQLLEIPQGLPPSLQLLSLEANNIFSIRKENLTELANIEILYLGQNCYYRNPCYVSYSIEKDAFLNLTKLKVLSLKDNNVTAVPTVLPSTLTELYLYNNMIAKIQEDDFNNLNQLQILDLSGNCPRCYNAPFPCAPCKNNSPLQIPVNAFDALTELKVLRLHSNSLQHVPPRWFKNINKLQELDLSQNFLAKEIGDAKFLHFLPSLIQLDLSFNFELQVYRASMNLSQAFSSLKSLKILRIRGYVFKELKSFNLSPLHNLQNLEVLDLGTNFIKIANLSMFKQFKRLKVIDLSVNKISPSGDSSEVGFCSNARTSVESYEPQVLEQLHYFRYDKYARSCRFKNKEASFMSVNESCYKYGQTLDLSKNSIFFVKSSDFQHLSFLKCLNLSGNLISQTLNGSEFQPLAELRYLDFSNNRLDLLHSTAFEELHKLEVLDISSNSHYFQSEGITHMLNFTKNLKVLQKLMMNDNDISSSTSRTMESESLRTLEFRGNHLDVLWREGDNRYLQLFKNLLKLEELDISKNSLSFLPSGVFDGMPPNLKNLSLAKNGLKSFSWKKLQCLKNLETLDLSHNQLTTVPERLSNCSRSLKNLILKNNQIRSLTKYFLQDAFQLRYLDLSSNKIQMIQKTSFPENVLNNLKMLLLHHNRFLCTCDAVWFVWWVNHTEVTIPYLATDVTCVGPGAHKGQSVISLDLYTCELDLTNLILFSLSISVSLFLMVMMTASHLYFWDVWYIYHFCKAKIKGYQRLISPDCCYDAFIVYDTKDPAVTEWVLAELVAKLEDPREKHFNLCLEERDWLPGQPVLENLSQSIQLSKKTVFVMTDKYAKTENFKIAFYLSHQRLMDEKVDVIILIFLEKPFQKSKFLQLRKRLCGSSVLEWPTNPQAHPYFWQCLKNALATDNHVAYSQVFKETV
Description: (§1) The Examples described were tested for biological activity in functional cellular assays using HEK293 cells stably overexpressing human TLR7 or TLR8. The assays tested for the ability of each Example to stimulate secretion of interferon alpha (IFNα) in human primary blood mono nuclear cells (PBMC).
(§2) To determine the ability of each Example to activate the human toll like receptor 7 (hTLR7) or human toll like receptor 8 (hTLR8), cell-based reporter systems were utilized. HEK293 cells stably overexpressing either hTLR7 or hTLR8 along with a reporter gene containing an optimized secreted embryonic alkaline phosphatase gene (SEAP), under the control of the IFN-b minimal promoter fused to five NF-κB and AP-1-binding sites, were obtained from Invivogen (HEK-Blue™ hTLR7, cat #Hkb-ht1r7; HEK-Blue™ hTLR8, cat #Hkb-ht1r8). Stimulation of hTLR7 or hTLR8 in these cells activates NF-κB and AP-1 and induces the production of SEAP which can be quantified using an alkaline phosphatase detection reagent.
(§3) Cells were maintained in Dulbecco's Modified Eagle Media (DMEM) (containing Fetal Bovine Serum (FBS) heat inactivated (10%), Glutamax (2 mM), Penicillin/Streptomycin, Blasticidin (10 μg/ml), Zeocin (100 μg/ml) and Normocin (100 μg/ml)). On day one of the assay, Examples were prepared using 11-point half-log serial dilutions from a 10mM DMSO stock solution and 50 nl was spotted into 384-well Viewplates (PerkinElmer, cat #6007480). Positive control TLR7/8 agonist and negative control (DMSO, no Example) were also spotted within the assay plate and were used to determine percent effect during the analysis process. After resuspension in DMEM assay media containing FBS heat inactivated (10%), Glutamax (2 mM) and Penicillin/Streptomycin, 10,000 cells/20 μl/well were added to previously prepared plates. Plates were incubated overnight (16-20 hrs) at 37° C. in a 5% CO2 environment. Prewetted Microclime lids (Labcyte, LLS-0310) were used to prevent evaporation. On day two of the assay, QUANTI-Blue™ detection reagent was prepared by reconstituting QUANTI-Blue™ powder (InvivoGen, Rep-qb1) with 100 ml of sterile water and allowed to equilibrate to 37° C. for 15 minutes. 20 μl of QUANTI-Blue™ detection reagent was added to each well and plates were incubated at room temperature for 180 min. At the end of the incubation, plates were read on an Envision (Perkin Elmer) plate reader capturing absorbance at 650 nm.
(§4) Using Positive (TLR7/8 agonist) and Negative (DMSO) controls, the percent (%) effect was calculated for each Example using the following equation: effect=100−[100*{(Example−Positive Control)/(Negative Control−Positive Control)}]
(§5) The % effect at each concentration of each Example was calculated utilizing the ABase software suite (IBDS) and was relative to the amount of SEAP produced in the positive and negative control wells contained within each assay plate. The concentrations and % effect values for each Example were fit using a 4-parameter logistic model in ABase and the concentration of each Example that produced 50% response (EC50) was calculated.

[2] = target: T2, human toll like receptor 8 (hTLR8) (Homo sapiens, UniProt Q9NR97); experiment: hTLR8 cell functional assay (HEK-Blue hTLR8 SEAP reporter); type: cell-based; settings: HEK293 cells stably overexpressing hTLR8, SEAP reporter; geometric mean when tested more than once
T2 construct: host or cells: HEK293 (HEK-Blue hTLR8)
T2 sequence (Q9NR97 27-1041): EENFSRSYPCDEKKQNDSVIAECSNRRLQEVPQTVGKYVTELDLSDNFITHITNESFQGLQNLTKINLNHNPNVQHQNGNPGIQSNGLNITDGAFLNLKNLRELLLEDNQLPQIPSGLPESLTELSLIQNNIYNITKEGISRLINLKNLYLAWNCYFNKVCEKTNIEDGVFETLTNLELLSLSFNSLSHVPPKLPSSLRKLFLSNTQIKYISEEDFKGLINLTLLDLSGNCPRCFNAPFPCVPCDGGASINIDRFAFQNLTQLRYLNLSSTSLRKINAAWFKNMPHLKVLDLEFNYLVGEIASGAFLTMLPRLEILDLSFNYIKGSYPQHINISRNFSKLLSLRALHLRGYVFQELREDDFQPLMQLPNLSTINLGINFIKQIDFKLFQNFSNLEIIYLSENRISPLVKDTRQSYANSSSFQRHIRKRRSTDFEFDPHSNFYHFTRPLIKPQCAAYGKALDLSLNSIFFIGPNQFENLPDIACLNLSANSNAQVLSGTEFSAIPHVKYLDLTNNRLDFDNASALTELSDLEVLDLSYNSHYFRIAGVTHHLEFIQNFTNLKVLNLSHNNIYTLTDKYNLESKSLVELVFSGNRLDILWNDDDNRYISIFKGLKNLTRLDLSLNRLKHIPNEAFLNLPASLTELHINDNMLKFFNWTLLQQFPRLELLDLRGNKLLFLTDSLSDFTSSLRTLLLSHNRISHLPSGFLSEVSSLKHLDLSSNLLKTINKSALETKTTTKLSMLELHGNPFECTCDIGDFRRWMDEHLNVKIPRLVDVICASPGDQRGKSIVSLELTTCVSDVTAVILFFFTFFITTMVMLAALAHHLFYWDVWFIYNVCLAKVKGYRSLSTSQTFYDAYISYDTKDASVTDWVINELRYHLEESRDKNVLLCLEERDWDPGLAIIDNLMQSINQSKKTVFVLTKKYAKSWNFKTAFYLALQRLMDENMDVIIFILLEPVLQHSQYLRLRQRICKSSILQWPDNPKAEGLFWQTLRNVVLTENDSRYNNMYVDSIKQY
Description: as §1, §2, §3, §4, §5

[3] = tested on: superficial basal cell carcinomas; settings: marketed 5% cream (Aldara); cited from earlier work

SMILES | EC50 [1] | EC50 [2] | 5-year clearance of superficial basal cell carcinomas [3]
CCOCc1nc2c(N)nc3c(c2n1CC(C)(CO)CO)CCC3 [Example 4, 2-((4-amino-2-(ethoxymethyl)-7,8-dihydrocyclopenta[b]imidazo[4,5-d]pyridin-1(6H)-yl)methyl)-2-methylpropane-1,3-diol] | 54 nM | 400 nM | –
CCOCc1nc2c(N)nc3c(c2n1CC(C)(CO)CO)CCCC3 [Example 5, 2-((4-amino-2-(ethoxymethyl)-6,7,8,9-tetrahydro-1H-imidazo[4,5-c]quinolin-1-yl)methyl)-2-methylpropane-1,3-diol] | 42 nM | 273 nM | –
CCCCc1nc2c(N)nc(C)c(C)c2n1CC(C)(CO)CO [Example 11, 2-((4-amino-2-butyl-6,7-dimethyl-1H-imidazo[4,5-c]pyridin-1-yl)methyl)-2-methylpropane-1,3-diol] | 13 nM | 160 nM | –
CCCCCc1nc2c(N)nc3ccccc3c2n1CC(C)(CO)CO [Example 12, 2-((4-amino-2-pentyl-1H-imidazo[4,5-c]quinolin-1-yl)methyl)-2-methylpropane-1,3-diol] | 9 nM | 191 nM | –
COCCc1nc2c(N)nc3c(c2n1CC(C)(CO)CO)CCC3 [Example 17, 2-((4-amino-2-(2-methoxyethyl)-7,8-dihydrocyclopenta[b]imidazo[4,5-d]pyridin-1(6H)-yl)methyl)-2-methylpropane-1,3-diol] | 156 nM | 1060 nM | –
COCCc1nc2c(N)nc3c(c2n1CC(C)(CO)CO)CCCC3 [Example 18, 2-((4-amino-2-(2-methoxyethyl)-6,7,8,9-tetrahydro-1H-imidazo[4,5-c]quinolin-1-yl)methyl)-2-methylpropane-1,3-diol] | 16 nM | 119 nM | –
COCCc1nc2c(N)nc3ccccc3c2n1CC(C)(CO)CO [Example 19, 2-((4-amino-2-(2-methoxyethyl)-1H-imidazo[4,5-c]quinolin-1-yl)methyl)-2-methylpropane-1,3-diol] | 9 nM | 310 nM | –
CC(C)Cn1cnc2c(N)nc3ccccc3c21 [Imiquimod] | – | – | approximately 80%
